In ChEMBL document CHEMBL1128378, “Use of medium-sized cycloalkyl rings to enhance secondary binding: discovery of a new class of human immunodeficiency virus (HIV) protease inhibitors” (J Med Chem, 1995):
Values belong to the compound of their own block, whether it stands above or below them.

How the values were obtained:
[1] = tested on: HIV-1 protease (Human immunodeficiency virus 1); assay: Binding affinity against HIV protease at 1 uM
[2] = tested on: HIV-1 protease (Human immunodeficiency virus 1); assay: Binding affinity against HIV protease.; Not determined due to low enzyme inhibition
[3] = tested on: HIV-1 protease (Human immunodeficiency virus 1); assay: Inhibition against HIV protease at 1 uM
[4] = Maximum plasma concentration for the compound in suspension form (formulation) was determined in rats at peroral dose of 5 mg/kg; assay type: ADME, organism-based; design: dose 5 mg/kg, route oral; conditions: rat, po
[5] = Time taken for maximum plasma concentration for the compound in suspension form (formulation) was determined in rats at peroral dose of 5 mg/kg; assay type: ADME, organism-based; design: dose 5 mg/kg, route oral; conditions: rat, po
[6] = Maximum plasma concentration for the compound in solution form (formulation) was determined in rats at peroral dose of 5 mg/kg; assay type: ADME, organism-based; design: dose 5 mg/kg, route oral; conditions: rat, po
[7] = Time taken for maximum plasma concentration for the compound in solution form (formulation) was determined in rats at peroral dose of 5 mg/kg; assay type: ADME, organism-based; design: dose 5 mg/kg, route oral; conditions: rat, po
[8] = tested on: HIV-1 protease (Human immunodeficiency virus 1); assay: Binding affinity against HIV protease at 30 uM concentration
[9] = tested on: HIV-1 protease (Human immunodeficiency virus 1); assay: Binding affinity against HIV protease at 30 uM

inhibition [1]: 10%
SMILES: CC(c1ccccc1)c1c(O)c2c(oc1=O)CCCCCC2 (configuration not stated)

Ki [2]: Low inhibition
inhibition [3]: < 10%
SMILES: O=c1c2c(oc(O)c1C(c1ccccc1)C1CC1)CCCCCCCCCC2 (configuration not stated)

inhibition [3]: 23%
SMILES: O=c1c2c(oc(O)c1C(c1ccccc1)C1CC1)CCCCCCCC2 (configuration not stated)

Cmax [4]: 30.3 µM
Tmax [5]: 6 h
Cmax [6]: 40.8 µM
Tmax [7]: 3.7 h
inhibition [3]: 95%
SMILES: O=c1c2c(oc(O)c1C(c1ccccc1)C1CC1)CCCCCC2 (configuration not stated)

inhibition [8]: 38%
SMILES: O=c1c(CCCc2ccccc2)c(O)oc2c1CCCCCC2

inhibition [3]: 70%
SMILES: O=c1c2c(oc(O)c1C(c1ccccc1)C1CC1)CCCCC2 (configuration not stated)

inhibition [9]: < 10%
SMILES: O=c1c(CCc2ccccc2)c(O)oc2c1CCCCCC2

inhibition [9]: < 10%
SMILES: O=c1c(Cc2ccccc2)c(O)oc2c1CCCCCC2

Ki [2]: Low inhibition
inhibition [3]: 40%
SMILES: O=c1c2c(oc(O)c1C(c1ccccc1)C1CC1)CCC2 (configuration not stated)

inhibition [3]: 62%
SMILES: O=c1c2c(oc(O)c1C(c1ccccc1)C1CC1)CCCC2 (configuration not stated)

inhibition [3]: 94%
SMILES: O=c1c2c(oc(O)c1C(c1ccccc1)C1CC1)CCCCCCC2 (configuration not stated)
